Measurements taken from patent US6866833B1, “Substituted thiourea complexing agent and a method for extracting a noble metal from a matrix using the complexing agent” (University College Cork, priority 1999, dated 2005).

Assays:
[1] = Supercritical fluid extraction of Au(III) as AuCl4^− from filter paper, gold determined by atomic absorption spectroscopy; conditions: observed after Au(III) SFE runs, 20 mg ligand
Experimental: Gold Au(III) extraction by the ligand of the comparative Example (a) was investigated employing a BDH Gold (III) standard containing 1000 ppm Au(III) (aqueous AuCl4^−). Thus 60 μl of solution Au(III) containing 3.05×10^−7 moles Au(III) was applied to a 3 cm diameter filter paper. The filter paper was allowed to dry and then placed in a glass tube (2 cm×0.5 cm i.d.), plugged with glass wool at both ends. 20 mg of ligand of the comparative Example (a) (in excess of over 200 fold over Au(III) level) was then placed in the same glass tube and plugged with glass wool.
The extraction vessel was statically extracted for 20 minutes and then dynamically extracted into a collecting solvent of 4 ml methanol for 15 minutes (0.8 ml CO2/minute flow rate). The methanol solution was then made up to 10 ml using additional methanol. Levels of gold in solution were then determined by atomic absorption spectroscopy. The procedure was carried out at different pressures from 200-400 atm. The following extraction percentages were obtained:
The procedure in Example 5(a) was repeated except the temperature of the extraction procedure was varied from 60-120° C., while maintaining the pressure of the extractor at 400 atm. The following results were obtained:
The procedure in Example 6 was repeated with the ligand from Example 1 being used in place of the ligand of the Comparative Example (a). The following % extraction values were obtained at differing pressures for extraction of Au(III):
The procedure of Example 7 was repeated employing the ligand of Example 2 in place of the ligand of Example 1 and utilising 50 μl Au(III) standard solution in place of 60 μl to give the following % extraction results at differing pressures of SF—CO2 at 60° C.

[2] = Solubility of the ligand in supercritical CO2 (weight loss of glass tube after static SFE); format: physicochemical; conditions: 60° C.; for Solubility in SF—CO2: approx. 60 mg ligand, 2.2 ml 100% SF—CO2, static 30 minutes, 200 and 300 atmospheres
Experimental: The solubility of the ligand of the comparative Examples (a)-(c) in supercritical CO2 was compared with the solubilities of the ligands of Examples 1 and 2 and 3 in supercritical CO2.
In each case, a weighed amount of the ligand of the respective comparative Example of approximately 60 mg was placed in a glass tube (2 cm×0.5 cm i.d.) and plugged with glass wool at both ends. The glass tube was placed inside the extraction vessel and statically extracted for 30 minutes. The inlet valve for SF—CO2 was then closed and the outlet valve opened into a collecting solution. The loss of weight of the glass tube after SFE corresponded to the solubility of the ligand in 2.2 ml 100% SF—CO2. The procedure was carried out at 60° C. and two different pressures namely 200 and 300 atmospheres.

Row | Compound | Solubility in SF—CO2 (ligand remaining in glass tube after extraction runs) [1] | Solubility in SF—CO2 [2] | solubility at 30 min ([2]; supercritical CO2, organic solvent or mixture, thermodynamic from solid, larger amounts of ligand, both pressures (200 and 300 atmospheres), read-out: Solubility in SF—CO2)
1 | NC(=S)Nc1cc(C(F)(F)F)cc(C(F)(F)F)c1 [Comparative Example (a)] | poor solubility |  | 
2 | CCCCCCCCCCCCNC(=S)NC [Comparative Example (c), N-methyl, N′-dodecyl thiourea] | poor solubility |  | 
3 | FC(F)(F)c1cc(NC(=S)NCC(F)(F)C(F)(F)C(F)(F)C(F)(F)C(F)(F)C(F)(F)C(F)(F)F)cc(C(F)(F)F)c1 [Example 3(a)] |  | excellent solubility | 
4 | CCCCCCCCNC(=S)NC [Comparative Example (b), N-methyl,N′-octyl thiourea] | poor solubility |  | 
5 | FC(F)(F)CNC(=S)Nc1cc(C(F)(F)F)cc(C(F)(F)F)c1 [Example 2] |  | excellent solubility | 
6 | CNC(=S)NCC(F)(F)C(F)(F)C(F)(F)F [Example 3(b), N-methyl, N′-heptafluorobutyl thiourea] |  | excellent solubility | > 700 mM
7 | FC(F)(F)c1cc(NC(=S)NCC(F)(F)C(F)(F)C(F)(F)F)cc(C(F)(F)F)c1 [Example 1] |  | excellent solubility | 
